Source: patent EP0808325B1, “[…] […] SERIES FOR […] GABA RECEPTOR” (priority 1994, dated 1996)
Where two headings read alike, the source gives them in different places.

Experiments:
GR complex = assay: modulation of [35S]TBPS binding in rat cerebral cortex P2 homogenate; parameters: species or system Sprague-Dawley rats; IMAX: unit not given here; conditions: for IC50: concentration of compounds to inhibit 50% of control [35S]TBPS binding, 2 nM [35S]TBPS, 25°C, 90 minutes, no unit printed; for IMAX: maximum inhibition of [35S]TBPS binding, I* = Inactive
In short: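 Rat (male Sprague-Dawley) cortical P2 homogenate, 0.5 mg protein, in 50 mM Na/K phosphate pH 7.4, 200 mM NaCl, incubated 90 min at 25° C with 2 nM [35S]TBPS plus GABA and (+)bicuculline, compounds added in DMSO. Filter-bound radioactivity counted; nonspecific binding defined with […].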

[1] = system: metrazol induced convulsions; assay: animal or person; assay type: in vivo, mice; conditions: for % Protected: 10 mg/kg
rats = assay: Vogel test; assay type: in vivo; conditions: i.c.v., 10 ug
Text: The Vogel test is based on the development of a conflict between a highly motivated behavior and an aversion. For this test, the strong motivation is thirst. The animal is water deprived for 12-16 hrs to produce the motivation to drink. During the training period the animals are exposed to the testing environment so they become accustomed to the drinking spout and minimize the fear of a novel environment. Following training, the animals are allowed access to water for 2 hrs. During this time, the animals will drink and eat their normal amount of water and food, compensating for the deprivation time. However, this schedule still produces a strong motivation to drink during the testing period.
Having been deprived of water for twelve to sixteen hours, an animal is placed in a test cage where it is allowed to drink freely for five minutes. This period is used to habituate the animal to the environment and the drinking spout Following the training period, animals have access to water and food in their home cage for 2 hrs. Food is available at all times. Twenty-four hours later, drug is administered to the animal intracerebroventricularly.
After an indicated delay started from the time of injection the animal is again placed in the test cage for ten minutes. A computer counts each time the animal licks, and after every twentieth lick administers a mild electric stimulus across the tongue and/or feet. The electrical stimulus consists of a 0.6 mA current with a duration of 100 msec. This procedure produces a state of conflict for the animal that is reduced by the administration of clinically used anxiolytic agents (i.e., Valium). For dose-response curves, separate groups of animals are injected with increasing doses of test drug and are tested at a predetermined time.

maximal electroshock [2] = assay: maximal electroshock test; assay type: in vivo, mice; conditions: Mus musculus, ip, 20% hydroxypropyl-β-cyclodextrin in water
Text: The anticonvulsant tests are similar to that described above. […]

mice [3] = assay: light/dark transition test; assay type: in vivo, N.I.H. Swiss-Webster mice; conditions: IP
Text: The light/dark transition test (Crawley and Goodwin, Pharmacol. Biochem. Behav. 13:67-70 1980) is based on the observation that rodents naturally tend to explore novel environments, but open, brightly lit arenas are aversive to the rodents and inhibit exploratory behavior (Christmas and Maxwell, Neuropharmacol. 9:17-29 1970; File, J. Neurosci. Meth. 2:219-238 1980).
Male N.I.H. Swiss-Webster mice (Harlan, Harlan, Indianapolis, IN) weighing 15-20 g were housed four per cage in polyethylene cages with sawdust bedding. The colony room was environmentally controlled (22°C) with a 12 hr light/dark cycle (0600-1800 hr). Food and water were available ad libitum, except during testing. The experiments were run from 0700-1500 hr and groups were counterbalanced for time of day effects. Mice were only administered drug or vehicle once.
The method used was a modification of methods previously described (Wieland et al., Br. Res. 565:263-268 (1991)). The apparatus included two 2-compartment automated test chambers (Model RXYZCM16, Omnitech Electronics, Columbus, OH). The open compartment was connected to the enclosed compartment via a 7.5 x 7.5 cm passageway. The open compartment was brightly lit using a 200 W incandescent light bulb. The experimental room was kept dark. Interruptions of the infrared beams in either chamber were automatically recorded by being linked to a computer through a Digiscan Analyzer (Omnitech Electronics) and the data was analyzed using the Integrated Lab Animal Monitoring System (Omnitech Electronics).
N.I.H. Swiss-Webster mice were administered vehicle or test drug intraperitoneally (IP), 10 min later they were placed in the center of the lit compartment. The number of transitions between the lit and dark chambers, total activity in the lit chamber and the time spent in the lit chamber were measured during a 10 min test period.

mice [4] = assay: elevated plus-maze; assay type: in vivo, N.I.H. Swiss-Webster mice
In short: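 Male Swiss-Webster mice (15-20 g), dosed once with drug or vehicle, were placed on an elevated plus-maze 10 min post-injection for 5 min. Open-arm entries and open-arm time recorded, each as a percentage of total arm entries or time; center time excluded.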

[5] = system: metrazol induced convulsions; conditions: cited from earlier work
maximal electroshock [6] = conditions: cited from earlier work
(+)bicuculline = conditions: cited from earlier work
picrotoxin = conditions: cited from earlier work
mice [7] = conditions: Rotorod; data from Swinyard & Woodhead 1982; cited from earlier work
strychnine = strychnine administered i.v.; data from Worms et al. 1982; cited from earlier work

C[C@H](O)[C@H]1CC[C@H]2[C@@H]3CC[C@H]4C[C@H](O)CC[C@]4(C)[C@H]3CC[C@]12C [3α,20a(S)-dihydroxy-5α-pregnane, 3α,20α(S)-Dihydroxy-5α-pregnane]
IC50 (GR complex): 99 nM
IMAX (GR complex): 46
% Protected ([1]; IP, micro soln.): 30%
Vogel (% of control) (rats; b-CD): 193.0 % of control

CC[C@H](O)[C@H]1CC[C@H]2[C@@H]3CC[C@H]4C[C@H](O)CC[C@]4(C)[C@H]3CC[C@]12C [3α,20α-dihydroxy-21-methyl-5α-pregnane, 3α,20α-Dihydroxy-21-methyl-5α-pregnane]
IC50 (GR complex): 35 nM
IMAX (GR complex): 28
Vogel (% of control) (rats; g-CD): 157.9 % of control

C[C@]12CC[C@@H](O)C[C@@H]1CC[C@@H]1[C@@H]2CC[C@]2(C)[C@@H](C(=O)CO)CC[C@@H]12 [3α,21-dihydroxy-5α-pregnan-20-one, reference compound]
IC50 (GR complex): 76 nM
IMAX (GR complex): 100
% Protected ([1]; IP, 50% hpbcd, 10 minutes prior to metrazol (85 mg/kg)): 87.5%
ED50 ([1]; Mus musculus, metrazol s.c., steroid i.p., 20% hydroxypropyl-β-cyclodextrin in water): 8.1 mg/kg
ED50 (maximal electroshock [2]): 26.7 mg/kg

CC(=O)[C@H]1CC[C@H]2[C@@H]3CC[C@@H]4C[C@H](O)CC[C@]4(C)[C@H]3CC[C@]12C [3α-Hydroxy-5β-pregnan-20-one, reference compound]
activity (mice [3]; 10 & 20 mg/kg, compared to control groups): significant (p < 0.01) increases
number of transitions between the dark box and the light box (mice [3]; at doses tested, versus control (Dunnett's t-test)): significantly increased
entries into the open-arms (mice [4]; 5 mg/kg (p ≤ 0.05)): significant increases
entries into the open-arms (mice [4]; 10 mg/kg (p ≤ 0.01)): significant increases
time spent on the open-arms (mice [4]; 10 mg/kg (p ≤ 0.01)): significant increases

O=C1CN=C(c2ccccc2Cl)c2cc([N+](=O)[O-])ccc2N1 [Clonazepam]
ED50 MTZ ([5]; metrazol, data from Swinyard & Woodhead 1982, NP = no protection): 0.009 mg/kg
ED50 MES (maximal electroshock [6]; data from Swinyard & Woodhead 1982): 93 mg/kg
ED50 BIC ((+)bicuculline; bicuculline, data from Swinyard & Woodhead 1982, NP = no protection): 0.0086 mg/kg
ED50 PICRO (picrotoxin; picrotoxin, data from Swinyard & Woodhead 1982, NP = no protection): 0.043 mg/kg
ED50 RR (mice [7]): 0.184 mg/kg

CCC1(c2ccccc2)C(=O)NC(=O)NC1=O [Phenobarbital]
ED50 RR (mice [7]): 69 mg/kg

NC(=O)CCC/N=C(\c1ccc(Cl)cc1)c1cc(F)ccc1O [Progabide]
ED50 MTZ ([5]; metrazol administered i.v., data from Worms et al. 1982): 30 mg/kg
ED50 MES (maximal electroshock [6]; data from Worms et al. 1982): 75 mg/kg
ED50 BIC ((+)bicuculline; bicuculline administered i.v., data from Worms et al. 1982): 30 mg/kg
ED50 PICRO (picrotoxin; picrotoxin administered i.v., data from Worms et al. 1982): 105 mg/kg
ED50 STR (strychnine): 75 mg/kg

C#C[C@@]1(O)CC[C@@]2(C)[C@H](CC[C@@H]3[C@@H]2CC[C@]2(C)[C@@H](C(=O)COC(=O)CCC(=O)O)CC[C@@H]32)C1 [Sodium 3α,21-dihydroxy-3β-ethynyl-5β-pregnan-20-one 21-hemisuccinate]
IC50 (GR complex): 540 nM
IMAX (GR complex): 102
% Protected ([1]; mouse, in vivo, ip): 50%
% Control (mice [4]; PO, water, 10 mg/kg): 159%
soluble in water: > 20 mg/mL
